Reference: paper PMC12135066, “Design and Preclinical Evaluation of Novel uPAR-Targeting Radiopeptides Modified with an Albumin-Binding Entity” (Molecular Pharmaceutics, 2025)
Read-outs that look alike come from different tables or passages of the source.

Assays:
human uPAR [1] = target: T1, human uPAR (Homo sapiens, UniProt Q03405); settings: reported value; ref not printed (citation marks lost in b4); read-out: binding affinity to human uPAR (KD); cited from earlier work
T1 construct: host or cells: HEK cells (HEK-uPAR)
T1 sequence (Q03405 23-335): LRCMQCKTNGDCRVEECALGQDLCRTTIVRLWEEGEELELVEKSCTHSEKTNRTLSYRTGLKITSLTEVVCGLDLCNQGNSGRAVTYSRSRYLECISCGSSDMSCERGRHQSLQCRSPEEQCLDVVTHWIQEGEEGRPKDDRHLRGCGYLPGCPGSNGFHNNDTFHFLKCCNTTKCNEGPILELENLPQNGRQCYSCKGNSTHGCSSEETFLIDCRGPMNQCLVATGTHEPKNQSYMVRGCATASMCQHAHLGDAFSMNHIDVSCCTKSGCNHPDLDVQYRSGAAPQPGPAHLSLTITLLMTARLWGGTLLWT
Description: The expression pattern of uPAR makes it a relevant tumor-associated marker for targeting with diagnostic and therapeutic radiopharmaceuticals. Previously, a synthetic uPAR-binding nonapeptide, referred to as AE105, was identified using phage display methodologies and affinity maturation techniques. , The reported strong binding affinity to human uPAR (K D = 0.4 nM) made AE105 an interesting candidate for the development of nuclear imaging agents and radiotherapeutics. , AE105 was conjugated with various macrocyclic chelators to enable the coordination of copper-64, gallium-68, and lutetium-177 ...

in vivo = settings: female, mouse, total radioactivity
in vitro [2] = settings: human, plasma
physchem = settings: pH 7.4
in vitro [3] = settings: mouse, plasma
Description: The radiopeptides (50 MBq/nmol) stabilized with L-ascorbic acid were diluted in mouse and human blood plasma and incubated at 37 °C. Aliquots were taken after 1, 4, and 24 h and analyzed using reversed-phase thin-layer chromatography (TLC) (Supporting Information).
aProduct peak expressed as percentage of the sum of integrated peak areas of the entire chromatogram relative to
the value obtained immediately after labeling (set as 100%), average ± standard deviation (SD) (n=3).
Stability of the Radiopeptides in Mouse and Human Blood Plasma
Purpose: The stability of the radiopeptides was assessed in mouse and human blood plasma as an
indication for their in vivo stability.
Methods: The radiopeptides (50 MBq/nmol) stabilized with L-ascorbic acid were diluted in mouse
blood plasma (Lot: 32321, Rockland Immunochemicals Inc., U.S.A.) or in human blood plasma
(Stiftung Blutspende SRK Aargau -Solothurn, Switzerland) at a concentration of 10 MBq/200 µL and
incubated at 37 °C over a 24 h time period. Control samples were prepared by diluting the radiopeptides
in saline at the same activity concentration. Aliquots of each dilution were taken after 1 h, 4 h, and 24 h
(2 µL, ~100 kBq) and investigated employing thin layer chromatography (TLC) methods on reversed-
phase TLC plates (MERCK Analytical Chromatography, TLC Silica gel 60 RP -18 F254s) as stationary
phase and a 3/7 (v/v) mixture of acetonitrile /citrate buffer (0.1 M, pH 5.5) as mobile phase. A dilution
of [177Lu]LuCl3/HCl 0.04 M (10 MBq/200 µL) was added on each TLC plate. The developed and dried
TLC plates were exposed to a phosphor screen (Super resolution screen PSR10450013, PerkinElmer)
for 1 min. The screen was read with a Cyclone Plus phosphor imager (PerkinElmer) and the peak
quantification was performed using OptiQuant Software (version 5.0).

[4] = system: HEK-uPAR xenograft-bearing nude mice; settings: mouse, in vivo
human uPAR [5] = target: T1, human uPAR; test: uPAR-binding affinity (KD values), saturation experiments with HEK-uPAR cells; settings: saturation binding on HEK-uPAR cells, on ice (4 °C) 1 h, 1–1600 nM radiopeptide, ± AE105 40 µM; γ-counter; nonlinear regression; average ± SD, n=3
Description: To determine the uPAR-binding affinity of the radiopeptides, saturation experiments were performed using HEK-uPAR cells in 48-well plates (Supporting Information). The cells were incubated on ice for 1 h in the presence or absence of excess AE105 (final concentration of 40 μM) together with the respective radiopeptide at a concentration range of 1–1600 nM. After rinsing the cells with PBS, they were lysed with an aqueous NaOH solution (1 M, 600 μL), transferred to radioimmunoassay tubes, and measured in a γ-counter (1480 Wizard, PerkinElmer). The K D values were determined by plotting the specific binding (values of samples incubated without AE105 minus the values of samples incubated with AE105) against the molar concentration of the added peptide. A nonlinear regression analysis was performed using GraphPad Prism software (version 8.3.1). The results were expressed as average ± SD of n = 3 independently performed experiments. […]
7. Determination of uPAR-Binding Affinity (KD Values)
Purpose: The uPAR-binding affinity of the radiopeptides were determined to investigate the impact of structural changes on the receptor binding.
Methods: HEK-uPAR cells were seeded in poly-D-lysine-coated 48-well plates (0.25 × 10 6 in 0.5 mL per well) using DMEM cell culture medium with supplements. The cells were incubated at 37 °C and 5% CO2 overnight to allow adhesion and growth. After removing the supernatant, the well plates with HEK-uPAR cells were placed on ice to prevent internalization of the radiopeptides. The cells were rinsed with cold PBS (0.5 mL, pH 7.4) followed by the addition of DMEM cell culture medium without supplements (450 µL/well) in the presence or absence of AE105 ( final concentration 40 µM) as a receptor-blocking agent. The radiopeptides (5 MBq/nmol) were diluted in PBS to obtain peptide concentrations ranging from 10 ‒16000 nM. From each dilution, 50 µL were added to each well to obtain final peptide concentrations of 1 nM to 1600 nM. The cells were incubated at 4 °C for 1 h before rinsing twice with PBS (0.5 mL, pH 7.4). The cells were lysed using an aqueous NaOH solution (1 M, 600 µL) and the lysates were transferred to RIA tubes for counting the activity in a γ-counter (1480 Wizard, PerkinElmer) . The KD values were determined by plotting specific binding (total binding minus unspecific binding) against the molar concentration of the added radiopeptide using GraphPad Prism (version 8.3.1). the results were then expressed as average K D values ± SD of n = 3 independent […]
Results: The results are reported in the main article.

[6] = CD1/nude (Crl:CD1-Foxn nu), 0.5 nmol, Blood
[7] = CD1/nude (Crl:CD1-Foxn nu), 0.5 nmol, HEK-uPAR xgft
[8] = CD1/nude, 5 MBq (0.5 nmol), Blood
[9] = CD1/nude, 5 MBq (0.5 nmol), Bone
[10] = CD1/nude, 5 MBq (0.5 nmol), Brain
[11] = CD1/nude, 5 MBq (0.5 nmol), Heart
[12] = CD1/nude, 5 MBq (0.5 nmol), Intestines
[13] = CD1/nude, 5 MBq (0.5 nmol), Kidneys
[14] = CD1/nude, 5 MBq (0.5 nmol), Liver
[15] = CD1/nude, 5 MBq (0.5 nmol), Lung
[16] = CD1/nude, 5 MBq (0.5 nmol), Muscle
[17] = CD1/nude, 5 MBq (0.5 nmol), Pancreas
[18] = CD1/nude, 5 MBq (0.5 nmol), Salivary glands
[19] = CD1/nude, 5 MBq (0.5 nmol), Spleen
[20] = CD1/nude, 5 MBq (0.5 nmol), Stomach
[21] = CD1/nude, 5 MBq (0.5 nmol), HEK-uPAR xgft

Row | Molecule | tissue uptake at 24 h (in vivo; [6]) [%ID/g] | tissue uptake at 4 h (in vivo; [8]) [%ID/g] | tissue uptake at 4 h (in vivo; [9]) [%ID/g] | tissue uptake at 24 h (in vivo; [9]) [%ID/g] | tissue uptake at 4 h (in vivo; [10]) [%ID/g] | tissue uptake at 24 h (in vivo; [10]) [%ID/g] | tissue uptake at 4 h (in vivo; [11]) [%ID/g] | tissue uptake at 24 h (in vivo; [11]) [%ID/g] | tissue uptake at 4 h (in vivo; [12]) [%ID/g] | tissue uptake at 24 h (in vivo; [12]) [%ID/g] | tissue uptake at 4 h (in vivo; [13]) [%ID/g] | tissue uptake at 24 h (in vivo; [13]) [%ID/g] | tissue uptake at 4 h (in vivo; [14]) [%ID/g] | tissue uptake at 24 h (in vivo; [14]) [%ID/g] | tissue uptake at 4 h (in vivo; [15]) [%ID/g] | tissue uptake at 24 h (in vivo; [15]) [%ID/g] | tissue uptake at 4 h (in vivo; [16]) [%ID/g] | tissue uptake at 24 h (in vivo; [16]) [%ID/g] | tissue uptake at 4 h (in vivo; [17]) [%ID/g] | tissue uptake at 24 h (in vivo; [17]) [%ID/g] | further results
1 | Asp-Cha-Phe-ser-arg-Tyr-Leu-Trp-Ser (DAFSRYLWS; Printed as Asp-Cha-Phe-ser-arg-Tyr-Leu-Trp-Ser. Residue 2 is Cha (L-beta-cyclohexylalanine, written as parent Ala, as in PDB 1YWH entity 2); D-Ser4; D-Arg5; Linear; C-terminal form (acid or amide) not) [AE105] |  |  |  |  |  |  |  |  |  |  |  |  |  |  |  |  |  |  |  |  | Kd (human uPAR [1]): 0.4 nM
2 | CC(C)C[C@H](NC(=O)[C@H](Cc1ccc(O)cc1)NC(=O)[C@@H](CCCNC(=N)N)NC(=O)[C@@H](CO)NC(=O)[C@H](Cc1ccccc1)NC(=O)[C@H](CC1CCCCC1)NC(=O)[C@H](CC(=O)O)NC(=O)[C@H](CCCCNC(=O)CCOCCOCCOCCOCCNC(=O)CCCc1ccc(I)cc1)NC(=O)CN1CCN(CC(=O)O)CCN(CC(=O)O)CCN(CC(=O)O)CC1)C(=O)N[C@@H](Cc1c[nH]c2ccccc12)C(=O)N[C@@H](CO)C(N)=O [[^177Lu]Lu-uPAR-02, metal not drawn] | 6 ± 0.5 | 16 ± 1 | 1.8 ± 0.2 | 1.2 ± 0.1 | 0.34 ± 0.03 | 0.13 ± 0.02 | 4.8 ± 0.2 | 2.5 ± 0.3 | 1.8 ± 0.2 | 0.84 ± 0.13 | 5.5 ± 0.2 | 3.6 ± 0.2 | 2.8 ± 0.3 | 1.6 ± 0.2 | 7.2 ± 0.3 | 4 ± 0.2 | 1.4 ± 0.1 | 0.9 ± 0.06 | 1.8 ± 0.1 | 0.92 ± 0.06 | tissue uptake at 4 h (in vivo; [7]): 11 ± 2 %ID/g; tissue uptake at 24 h (in vivo; [7]): 10 ± 3 %ID/g; tissue uptake at 4 h (in vivo; [18]): 3.2 ± 0.4 %ID/g; tissue uptake at 24 h (in vivo; [18]): 1.8 ± 0.2 %ID/g; tissue uptake at 4 h (in vivo; [19]): 2.2 ± 0.1 %ID/g; tissue uptake at 24 h (in vivo; [19]): 2 ± 0.2 %ID/g; tissue uptake at 4 h (in vivo; [20]): 1.6 ± 0.3 %ID/g; tissue uptake at 24 h (in vivo; [20]): 0.69 ± 0.03 %ID/g; remaining at 1 h, 10 MBq/200 µL (in vitro [2]): 100 ± 1%; remaining at 4 h, 10 MBq/200 µL (in vitro [2]): 99 ± 1%; remaining at 24 h, 10 MBq/200 µL (in vitro [2]): 99 ± 1%; logD (physchem): 0.25 ± 0.02; remaining at 1 h, 10 MBq/200 µL (in vitro [3]): 100 ± 1%; remaining at 4 h, 10 MBq/200 µL (in vitro [3]): 98 ± 1%; remaining at 24 h, 10 MBq/200 µL (in vitro [3]): 98 ± 2%; fold higher activity retention in the HEK-uPAR xenograft than [177Lu]Lu-DOTA-AE105 [4]: over 10 fold; fold higher xenograft-to-kidney ratio than [177Lu]Lu-DOTA-AE105 [4]: > 3 fold; Kd (human uPAR [5]): 32 ± 12 nM
3 | CC(C)C[C@H](NC(=O)[C@H](Cc1ccc(O)cc1)NC(=O)[C@@H](CCCNC(=N)N)NC(=O)[C@@H](CO)NC(=O)[C@H](Cc1ccccc1)NC(=O)[C@H](CC1CCCCC1)NC(=O)[C@H](CC(=O)O)NC(=O)[C@H](CCCCNC(=O)CCOCCOCCOCCOCCNC(=O)c1ccc(CNC(=O)CCCc2ccc(I)cc2)cc1)NC(=O)CN1CCN(CC(=O)O)CCN(CC(=O)O)CCN(CC(=O)O)CC1)C(=O)N[C@@H](Cc1c[nH]c2ccccc12)C(=O)N[C@@H](CO)C(N)=O [[^177Lu]Lu-uPAR-03, metal not drawn] | 13 ± 1 | 15 ± 1 | 1.5 ± 0.3 | 1.8 ± 0.3 | 0.31 ± 0.05 | 0.3 ± 0.01 | 4.8 ± 0.5 | 5.2 ± 0.1 | 1.8 ± 0.1 | 2 ± 0.1 | 4.1 ± 0.3 | 4.7 ± 0.2 | 3.1 ± 0.4 | 3.2 ± 0.2 | 7.5 ± 0.5 | 7.7 ± 0.7 | 1.3 ± 0.1 | 1.5 ± 0.1 | 1.7 ± 0.1 | 1.9 ± 0.2 | tissue uptake at 4 h (in vivo; [21]): 4 ± 0.3 %ID/g; tissue uptake at 24 h (in vivo; [21]): 7.5 ± 0.2 %ID/g; tissue uptake at 4 h (in vivo; [18]): 3.4 ± 0.4 %ID/g; tissue uptake at 24 h (in vivo; [18]): 3.6 ± 0.2 %ID/g; tissue uptake at 4 h (in vivo; [19]): 2.2 ± 0.2 %ID/g; tissue uptake at 24 h (in vivo; [19]): 3 ± 0.2 %ID/g; tissue uptake at 4 h (in vivo; [20]): 1.6 ± 0.1 %ID/g; tissue uptake at 24 h (in vivo; [20]): 1.8 ± 0.1 %ID/g; remaining at 1 h, 10 MBq/200 µL (in vitro [2]): 100 ± 1%; remaining at 4 h, 10 MBq/200 µL (in vitro [2]): 99 ± 1%; remaining at 24 h, 10 MBq/200 µL (in vitro [2]): 99 ± 2%; logD (physchem): 0.37 ± 0.14; remaining at 1 h, 10 MBq/200 µL (in vitro [3]): 100%; remaining at 4 h, 10 MBq/200 µL (in vitro [3]): 99 ± 1%; remaining at 24 h, 10 MBq/200 µL (in vitro [3]): 98 ± 1%; Kd (human uPAR [5]): 56 ± 8 nM
